Data taken from article PMC7216583 (Parasites & Vectors, 2020).
Counter-ions that a name gives are not always drawn.

system: Toxoplasma gondii RH-2F tachyzoites; assay: microbe, parasite or virus in culture; details: 72 h, read-out: Parasite inhibition (%) mean

| Compound | inhibition of growth at 5 µM |
| --- | --- |
| Cc1cc2c(F)c(Oc3ncnn4cc(OC[C@@H](C)O)c(C)c34)ccc2[nH]1 [Brivanib (BMS-540215)] | 49.8% |
| C=CC(=O)Nc1cccc(Sc2nc(Nc3ccc(N4CCN(C)CC4)cc3)ncc2Cl)c1 [WZ8040] | 2.8% |
| CNCC(O)c1ccc(O)c(O)c1 (racemic) [DL-Adrenaline] | 1.5% |
| CC(C)NCC(O)COc1ccc(CCOCC2CC2)cc1 (stereo not shown) [Betaxolol (Betoptic)] | 9.5% |

same assay, conditions: 72 h, read-out: Parasite inhibition (%) mean, preliminary screen of compound library, mean

| Compound | inhibition of growth at 5 µM |
| --- | --- |
| COc1ccc(CCC(=O)Nc2nc3ccc(Cl)cc3s2)cc1OC [KY02111] | -12.8% |
| CC[C@@H]1/C=C(\C)C[C@H](C)C[C@H](OC)[C@H]2O[C@@](O)(C(=O)C(=O)N3CCCC[C@H]3C(=O)O[C@H](/C(C)=C/[C@@H]3CC[C@H](Cl)[C@H](OC)C3)[C@H](C)[C@@H](O)CC1=O)[C@H](C)C[C@@H]2OC [Pimecrolimus] | -12.9% |
| CCc1nc(-c2cccc(C)c2)c(-c2ccnc(NC(=O)c3ccccc3)c2)s1 [TAK 715] | 22.5% |
| Cc1nc2c([nH]1)-c1ccccc1N(C(=O)c1ccc(NC(=O)c3ccccc3-c3ccccc3)cc1)CC2 [Conivaptan HCl (Vaprisol)] | 6.6% |
| CCCCOc1cc(C(=O)NCCN(CC)CC)c2ccccc2n1 [Dibucaine (Cinchocaine) HCl] | 8.9% |
| CCn1c(=O)c2c(nc(/C=C/c3ccc(OC)c(OC)c3)n2C)n(CC)c1=O [Istradefylline (KW-6002)] | -1.9% |
| C=CCc1cc(OC)c(O)c(C(=O)NCCO)c1 [Alibendol] | 0.1% |
| CC[C@H](Nc1ncnc2[nH]cnc12)c1nc2cccc(F)c2c(=O)n1-c1ccccc1 [CAL-101 (GS-1101)] | 47.8% |
| CC(=O)NS(=O)(=O)c1ccc(N)cc1 [Sulfacetamide Sodium] | 0.9% |
| CN(C)[C@@H](CCOc1cccc2ccccc12)c1ccccc1 [Dapoxetine hydrochloride (Priligy)] | -0.2% |
| COc1cc(/C=C/C(=O)N2CCN(CC(=O)N3CCCC3)CC2)cc(OC)c1OC [Cinepazide maleate] | 1.5% |
| C[C@]12C=CC(=O)C=C1CC[C@@H]1[C@H]2C(=O)C[C@@]2(C)[C@H]1CC[C@@]2(O)C(=O)CO [Prednisone (Adasone)] | 33.8% |
| N#CCNC(=O)c1ccc(-c2ccnc(Nc3ccc(N4CCOCC4)cc3)n2)cc1 [Cyt387] | 28.9% |
| O=S(=O)(O)Oc1ccc(C(c2ccc(OS(=O)(=O)O)cc2)c2ccccn2)cc1 [Sodium Picosulfate] | 0.3% |
| CC=CC1=C(C(=O)O)N2C(=O)[C@@H](NC(=O)[C@H](N)c3ccc(O)cc3)[C@H]2SC1 (mixture of isomers) [Cefprozil hydrate (Cefzil)] | 12.3% |
| CCCNC(C)C(=O)Nc1ccccc1C (stereo not shown) [Prilocaine] | -21.8% |
| CN1CCN(c2c(F)cc3c(=O)c(C(=O)O)cn4c3c2OCN4C)CC1 [Marbofloxacin] | 8.7% |
| Nc1nc2c(ncn2COCCO)c(=O)[nH]1 [Acyclovir (Aciclovir)] | -55.5% |
| O=C(CCCCCCNC(=O)c1cnc(N(c2ccccc2)c2ccccc2)nc1)NO [Rocilinostat (ACY-1215)] | 2.9% |

| Compound | inhibition of growth at 5 µM |
| --- | --- |
| CC(C)c1onc(-c2c(Cl)cccc2Cl)c1COc1ccc(/C=C/c2cccc(C(=O)O)c2)c(Cl)c1 [GW4064] | -7.7% |
| Nc1ncnc2c1ncn2[C@@H]1O[C@@H](COP(=O)(O)OP(=O)(O)OP(=O)(O)O)[C@@H](O)[C@H]1O [ATP (Adenosine-Triphosphate)] | -56.8% |
| CN[C@@H]1C[C@@H](N)[C@H](O)[C@@H](O[C@@H]2O[C@H](CO)[C@H](O)[C@@H]3OC4(O[C@@H]23)O[C@H]([C@@H](N)CO)[C@H](O)[C@H](O)[C@@H]4O)[C@@H]1O (stereo partly shown) [Hygromycin B] | 40.4% |
| CC(C)C(=O)Oc1ccc(CO)cc1[C@H](CCN(C(C)C)C(C)C)c1ccccc1 [Fesoterodine fumarate (Toviaz)] | 0.2% |
| Nc1nc(=O)c2c([nH]1)NC[C@H](CNc1ccc(C(=O)N[C@@H](CCC(=O)O)C(=O)O)cc1)N2C=O [Calcium levofolinate (Calcium Folinate)] | 0.1% |
| OC[C@@H](O)[C@@H](O)[C@H](O)[C@H](O)CO [D-Mannitol (Osmitrol)] | 0.2% |
| N[C@@H]1CCCCN(c2c(F)cc3c(=O)c(C(=O)O)cn(C4CC4)c3c2Cl)C1 [Besifloxacin HCl (Besivance)] | 39.1% |
| O=C(Nc1cccnc1)N1CCC(Cc2cccc(Oc3ccc(C(F)(F)F)cn3)c2)CC1 [PF-3845] | 6.7% |
| NCC(=O)CCC(=O)O [5-Aminolevulinic acid hydrochloride] | 20.1% |
| COC(=O)C1=CCCN(C)C1 [Arecoline] | -9.5% |
| Cc1onc(-c2ccccc2Cl)c1C(=O)N[C@@H]1C(=O)N2[C@@H](C(=O)O)C(C)(C)S[C@@H]12 [Cloxacillin sodium (Cloxacap)] | 0.2% |
| C[N+]1(C)[C@@H]2C[C@@H](OC(=O)C(O)(c3cccs3)c3cccs3)C[C@H]1[C@@H]1O[C@@H]12 [Tiotropium Bromide hydrate] | -0.7% |
| N=C(N)c1ccc(OCCCCCOc2ccc(C(=N)N)cc2)cc1 [Pentamidine HCl] | 23.6% |
| C[C@@H](O)[C@H]1C(=O)N2C(C(=O)O)=C(S[C@@H]3CN[C@H](CNS(N)(=O)=O)C3)[C@H](C)[C@H]12 [Doripenem Hydrate] | 0.8% |
| NC(Cc1c[nH]c2ccc(O)cc12)C(=O)O (stereo not shown) [5-hydroxytryptophan (5-HTP)] | 0% |
| Clc1ccc(C(Cn2ccnc2)OCc2ccc(Sc3ccccc3)cc2)c(Cl)c1 (stereo not shown) [Fenticonazole nitrate] | 19.8% |
| O=C(O)[C@]1(Cc2cccc(Nc3nccs3)n2)CC[C@@H](Oc2cccc(Cl)c2F)CC1 [MK-5108 (VX-689)] | 60.4% |
| COc1cc2nc(N3CCCN(C)CC3)nc(NC3CCN(Cc4ccccc4)CC3)c2cc1OC [BIX01294] | 21.8% |

same assay, conditions: 72 h, read-out: Parasite inhibition (%) mean, preliminary screen, mean

| Compound | inhibition of growth at 5 µM |
| --- | --- |
| O=C(O)c1ccc(Nc2ncc3c(n2)-c2ccc(Cl)cc2C(c2c(F)cccc2F)=NC3)cc1 [MLN8054] | 58.4% |
| CC(C)c1noc(N2CCC(COc3ccc(-c4ccc(S(C)(=O)=O)cc4)nc3)CC2)n1 [GSK1292263] | 0.7% |
| C[C@@H](N)[C@H]1CC[C@H](C(=O)Nc2ccncc2)CC1 [Y-27632 2HCl] | -4.8% |
| Cc1cccc(Nc2nc(-c3ccncc3)cs2)c1 [STF-62247] | 15.2% |
| Nc1ncnc2c1c(-c1cccc(OCc3ccccc3)c1)cn2C1CC(CN2CCCC2)C1 (stereo in doubt) [NVP-ADW742] | 48.9% |
| C/C(=C\C(=O)Nc1ccccc1C(=O)O)c1ccc2ccccc2c1 [BIBR 1532] | 0.4% |
| O=c1[nH]cnc2[nH]ncc12 [Allopurinol Sodium (Aloprim)] | -0.7% |
| CCN(CCO)CCCOc1ccc2c(Nc3cc(CC(=O)Nc4cccc(F)c4)n[nH]3)ncnc2c1 [Barasertib (AZD1152-HQPA)] | 54.4% |
| COc1cc(Nc2ncc3c(n2)-c2ccc(Cl)cc2C(c2c(F)cccc2OC)=NC3)ccc1C(=O)O [MLN8237 (Alisertib)] | 58.9% |
| CC1COC2(CCN(c3nc(=O)c4cc(C(F)(F)F)cc([N+](=O)[O-])c4s3)CC2)O1 (racemic) [BTZ043 racemate] | -5.8% |
| CCCS(=O)(=O)Nc1ccc(F)c(C(=O)c2c[nH]c3ncc(-c4ccc(Cl)cc4)cc23)c1F [Vemurafenib (PLX4032)] | 0.5% |
| Cc1ccc(S(=O)(=O)OCC(=O)Nc2ccc(C(=O)O)c(O)c2)cc1 [NSC 74859 (S3I-201)] | -25.8% |
| CCC(COC(=O)c1cc(OC)c(OC)c(OC)c1)(c1ccccc1)N(C)C (stereo not shown) [Trimebutine] | 1.4% |
| COc1ccc2[nH]c([S+]([O-])Cc3ncc(C)c(OC)c3C)nc2c1 (stereo not shown) [Esomeprazole magnesium (Nexium)] | 1.6% |
| CCCN1CCO[C@@H]2c3cc(O)ccc3OC[C@@H]21 [PD 128907 HCl] | 1.8% |
| CN(C)/N=N/c1[nH]cnc1C(N)=O [Dacarbazine (DTIC-Dome)] | 5.8% |
| O=S(=O)(O)CCSSCCS(=O)(=O)O [Dimesna] | -0.8% |
| Cc1ccc(C(=O)Nc2ccc(CN3CCN(C)CC3)c(C(F)(F)F)c2)cc1C#Cc1cnc2cccnn12 [Ponatinib (AP24534)] | 49.3% |
| Clc1ccccc1C(c1ccccc1)(c1ccccc1)n1cccn1 [TRAM-34] | 2.6% |
| Cn1c(=O)n(-c2ccc(C(C)(C)C#N)cc2)c2c3cc(-c4cnc5ccccc5c4)ccc3ncc21 [BEZ235 (NVP-BEZ235)] | 5.6% |
| C[C@@H](NCCCc1cccc(C(F)(F)F)c1)c1cccc2ccccc12 [AMG-073 HCl (Cinacalcet HCl)] | -0.4% |
| Cc1nc(Nc2ncc(C(=O)Nc3c(C)cccc3Cl)s2)cc(N2CCN(CCO)CC2)n1 [Dasatinib (BMS-354825)] | 10.5% |
| COc1cc2nccc(Oc3ccc(NC(=O)Nc4cc(C)on4)c(Cl)c3)c2cc1OC [Tivozanib (AV-951)] | -5.5% |
| O[C@H](CNC[C@@H](O)[C@H]1CCc2cc(F)ccc2O1)[C@@H]1CCc2cc(F)ccc2O1 [Nebivolol (Bystolic)] | 68.9% |
| CNC(=O)c1cc(Oc2ccc(NC(=O)Nc3ccc(Cl)c(C(F)(F)F)c3)cc2)ccn1 [Sorafenib (Nexavar)] | 55.5% |
| CCOC(=O)[C@H](CCc1ccccc1)N[C@H]1CS[C@H](c2cccs2)CN(CC(=O)O)C1=O [Temocapril HCl] | 31.7% |
| Cc1nc(C(=O)NCC(=O)O)c(O)c2ccc(Oc3ccccc3)cc12 [FG-4592] | 1.3% |
| CCN(CC)CC#CCOC(=O)C(O)(c1ccccc1)C1CCCCC1 (stereo not shown) [Oxybutynin (Ditropan)] | -3.2% |
| Nc1ncnc2[nH]cnc12 [Adenine HCl] | 22.6% |
